“Also recorded” adds a separate entry of the source. Like-named read-outs stand apart in the source and are kept apart here.

These results are taken from patent US7833331B2, “Non-toxic corrosion-protection pigments based on cobalt” (University of Dayton, priority 2007, dated 2010).

The assay can be described thus: Accelerated corrosion testing (both ASTM B-117 and G-85.5) of PVB wash primers, overall observation. How it is done:
The corrosion inhibiting performance of CoIII pigments was evaluated by incorporating them into primer paint formulations. […] The wash primer is composed of a resin, an acid, a corrosion inhibiting pigment, powdered talc, and carbon lampblack. The acid content of this wash primer provides a rigorous initial test of the stability and performance of the pigments. Other, more benign, polymer-based binder and resin systems might not separate the compounds based on their performance as effectively or as rapidly.
PVB was used exclusively throughout testing to avoid preparation and compositional complications during analysis of pigment performance. However, the invention is not limited to the use of PVB.
A small amount (0.2 g) of powdered talc (magnesium silicate) “filler” was added. Lampblack was not added to these samples. These components were mixed thoroughly by hand and 3.8 g of phosphoric acid diluent added with further mixing. This rough processing allowed direct comparisons of pigment performance to be made without complications due to powder treatments, modifications, and additives.
This is not the conventional paint application procedure for aluminum alloys. Under normal service conditions, aluminum alloys are first subjected to a hexavalent chromium-containing conversion coating prior to primer application. However, the conversion coating was omitted so that the performance of the pigment alone could be evaluated and not the synergistic effects of hexavalent chromium (in the conversion coating) or even of barrier films (in the phosphate or anodized coatings).
This accelerated corrosion test exposes samples to a constant salt-water fog and is a de facto test of solubility for corrosion inhibitors. […] This accelerated corrosion test exposes samples to a cycle of fog of dilute salt and ammonium sulfate at room temperature followed by forced-air drying at an elevated temperature.
Chromate pigments were precipitated from aqueous synthesis solutions and incorporated into PVB wash primer formulations so that each primer sample had the same molar quantity of hexavalent chromium. […] After the samples had dried for 24 hours, they were scribed and the edges of each sample taped to eliminate edge effects.
Wash primer coatings containing these pigments were prepared wherein the trivalent cobalt was present in identical molar concentrations from sample to sample. […] Pigments were made with chloride, bromide, sulfate, hexafluorosilicate, phosphate, molybdate, tungstate, and phosphomolybdate anions. Additionally, […] was also used as a pigment for this application.

Where [1] appears, read: 135 hours of both ASTM B-117 and G-85.5, identical molar concentrations of trivalent cobalt, 2024-T3 and 7075-T6.

Regarding `N.N.N.N.N.N.N.N.N.N.N.N.[Co+3].[Co+3].[O]=[Mo](=[O])([O-])[O-].[O]=[Mo](=[O])([O-])[O-].[O]=[Mo](=[O])([O-])[O-]` [hexaaminecobalt(III) molybdate], the “corrosion resistance of trivalent cobalt pigments in PVB wash primer” value (“corrosion resistance” for short) is listed as “a small amount of corrosion resistance; also recorded: performed the best of these three pigment compounds”.

For `N.N.N.N.N.N.[Cl-].[Cl-].[Cl-].[Co+3]` [hexaaminecobalt(III) chloride], the “corrosion resistance” value is “performed very well in the early stages of the test and then failed as the test progressed”.

For the compound `N.N.N.N.N.N.N.N.N.N.N.N.[Co+3].[Co+3].[O]=[W](=[O])([O-])[O-].[O]=[W](=[O])([O-])[O-].[O]=[W](=[O])([O-])[O-]` [hexaaminecobalt(III) tungstate], the “corrosion resistance” value is “a small amount of corrosion resistance”.

As to `[O]=[Co][O][Co]=[O]` [CO2O3, Co2O3, reference compound], the “corrosion resistance” value under setting [1] is “no discernable corrosion resistance at all”.

Take `F[Si-2](F)(F)(F)(F)F.F[Si-2](F)(F)(F)(F)F.F[Si-2](F)(F)(F)(F)F.N.N.N.N.N.N.N.N.N.N.N.N.[Co+3].[Co+3]` [hexaaminecobalt(III) hexafluorosilicate]: under setting [1], the “corrosion resistance” value was “performed the best of all”.

Turning to hexaaminecobalt(III) phosphomolybdate, the “corrosion resistance” value under setting [1] was “a small amount of corrosion resistance; also recorded: performed the worst”.
